Test results published in the supplement of paper PMC13207355.
Counter-ions that a name gives are not always drawn.

Experiments:
Details in all cases: exposure time: 72 h
E13 [1] = patient-derived glioblastoma stem cells of classical subtype; assay: surviving fraction (nuclei count normalised to DMSO); higher = more cells surviving (less toxic)
E21 [2] = patient-derived glioblastoma stem cells of mesenchymal subtype; assay: as above
E28 [3] = patient-derived glioblastoma stem cells of classical subtype; assay: as above
E31 [4] = patient-derived glioblastoma stem cells of proneural subtype; assay: as above
E34 [5] = patient-derived glioblastoma stem cells of proneural subtype; assay: as above
E57 [6] = patient-derived glioblastoma stem cells of mesenchymal subtype; assay: as above
FT3469 [7] = normal neural stem cell line; assay: as above
E13 [8] = assay: phenotypic distance (Euclidean, principal components) from DMSO controls (arbitrary units); higher = stronger morphological change
E21 [9] = assay: as above
E28 [10] = assay: as above
E31 [11] = assay: as above
E34 [12] = assay: as above
E57 [13] = assay: as above
FT3469 [14] = assay: as above
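For phenotypic distance (Euclidean, principal components) from DMSO controls in this document: cell Painting imaging in 384-well plates, CellProfiler features reduced to at least 20 principal components, Euclidean distance versus same-plate DMSO vehicle wells (0.1% v/v), median over six images per well.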
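For surviving fraction (nuclei count normalised to DMSO) in this document: nuclei counted by high-content imaging of Hoechst-stained cells in laminin-coated 384-well plates, relative to 0.1% DMSO vehicle wells, with staurosporine as cell-death control.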

CC(C)NCC(O)c1cc(O)cc(O)c1 (stereo not drawn) [Metaproterenol sulfate, orciprenaline sulfate]
surviving fraction (E13 [1]; 4.1 nM): 0.979
surviving fraction (E13 [1]; 12.3 nM): 0.957
surviving fraction (E13 [1]; 37 nM): 1.06
surviving fraction (E13 [1]; 111.1 nM): 0.933
surviving fraction (E13 [1]; 333.3 nM): 1.06
surviving fraction (E13 [1]; 1000 nM): 0.995
surviving fraction (E13 [1]; 3000 nM): 1.06
surviving fraction (E21 [2]; 4.1 nM): 1
surviving fraction (E21 [2]; 12.3 nM): 0.995
surviving fraction (E21 [2]; 37 nM): 1.01
surviving fraction (E21 [2]; 111.1 nM): 1.05
surviving fraction (E21 [2]; 333.3 nM): 1.13
surviving fraction (E21 [2]; 1000 nM): 1.02
surviving fraction (E21 [2]; 3000 nM): 1.07
surviving fraction (E28 [3]; 4.1 nM): 1.2
surviving fraction (E28 [3]; 12.3 nM): 1.1
surviving fraction (E28 [3]; 37 nM): 1.06
surviving fraction (E28 [3]; 111.1 nM): 1.14
surviving fraction (E28 [3]; 333.3 nM): 1.21
surviving fraction (E28 [3]; 1000 nM): 1.04
surviving fraction (E28 [3]; 3000 nM): 1.13
surviving fraction (E31 [4]; 4.1 nM): 0.982
surviving fraction (E31 [4]; 12.3 nM): 1.02
surviving fraction (E31 [4]; 37 nM): 0.984
surviving fraction (E31 [4]; 111.1 nM): 1.14
surviving fraction (E31 [4]; 333.3 nM): 1.02
surviving fraction (E31 [4]; 1000 nM): 1.13
surviving fraction (E31 [4]; 3000 nM): 1.03
surviving fraction (E34 [5]; 4.1 nM): 0.922
surviving fraction (E34 [5]; 12.3 nM): 1.02
surviving fraction (E34 [5]; 37 nM): 1.04
surviving fraction (E34 [5]; 111.1 nM): 0.924
surviving fraction (E34 [5]; 333.3 nM): 1.02
surviving fraction (E34 [5]; 1000 nM): 1.24
surviving fraction (E34 [5]; 3000 nM): 0.961
surviving fraction (E57 [6]; 4.1 nM): 1.18
surviving fraction (E57 [6]; 12.3 nM): 1.11
surviving fraction (E57 [6]; 37 nM): 1.14
surviving fraction (E57 [6]; 111.1 nM): 0.953
surviving fraction (E57 [6]; 333.3 nM): 1.07
surviving fraction (E57 [6]; 1000 nM): 1.18
surviving fraction (E57 [6]; 3000 nM): 1.02
surviving fraction (FT3469 [7]; 4.1 nM): 1.18
surviving fraction (FT3469 [7]; 12.3 nM): 1.32
surviving fraction (FT3469 [7]; 37 nM): 1.05
surviving fraction (FT3469 [7]; 111.1 nM): 1.14
surviving fraction (FT3469 [7]; 333.3 nM): 1.13
surviving fraction (FT3469 [7]; 1000 nM): 1.04
surviving fraction (FT3469 [7]; 3000 nM): 1.22
phenotypic distance (E13 [8]; 4.1 nM): 0.452
phenotypic distance (E13 [8]; 12.3 nM): 0.546
phenotypic distance (E13 [8]; 37 nM): 0.581
phenotypic distance (E13 [8]; 111.1 nM): 0.458
phenotypic distance (E13 [8]; 333.3 nM): 0.743
phenotypic distance (E13 [8]; 1000 nM): 0.439
phenotypic distance (E13 [8]; 3000 nM): 0.72
phenotypic distance (E21 [9]; 4.1 nM): 0.506
phenotypic distance (E21 [9]; 12.3 nM): 0.541
phenotypic distance (E21 [9]; 37 nM): 0.821
phenotypic distance (E21 [9]; 111.1 nM): 2.96
phenotypic distance (E21 [9]; 333.3 nM): 0.869
phenotypic distance (E21 [9]; 1000 nM): 0.684
phenotypic distance (E21 [9]; 3000 nM): 0.751
phenotypic distance (E28 [10]; 4.1 nM): 0.775
phenotypic distance (E28 [10]; 12.3 nM): 0.464
phenotypic distance (E28 [10]; 37 nM): 0.677
phenotypic distance (E28 [10]; 111.1 nM): 0.689
phenotypic distance (E28 [10]; 333.3 nM): 1.06
phenotypic distance (E28 [10]; 1000 nM): 0.558
phenotypic distance (E28 [10]; 3000 nM): 0.934
phenotypic distance (E31 [11]; 4.1 nM): 0.663
phenotypic distance (E31 [11]; 12.3 nM): 0.455
phenotypic distance (E31 [11]; 37 nM): 0.562
phenotypic distance (E31 [11]; 111.1 nM): 0.625
phenotypic distance (E31 [11]; 333.3 nM): 0.672
phenotypic distance (E31 [11]; 1000 nM): 0.447
phenotypic distance (E31 [11]; 3000 nM): 0.615
phenotypic distance (E34 [12]; 4.1 nM): 0.654
phenotypic distance (E34 [12]; 12.3 nM): 0.671
phenotypic distance (E34 [12]; 37 nM): 0.473
phenotypic distance (E34 [12]; 111.1 nM): 0.805
phenotypic distance (E34 [12]; 333.3 nM): 0.747
phenotypic distance (E34 [12]; 1000 nM): 0.882
phenotypic distance (E34 [12]; 3000 nM): 0.769
phenotypic distance (E57 [13]; 4.1 nM): 0.966
phenotypic distance (E57 [13]; 12.3 nM): 0.872
phenotypic distance (E57 [13]; 37 nM): 0.874
phenotypic distance (E57 [13]; 111.1 nM): 0.737
phenotypic distance (E57 [13]; 333.3 nM): 1
phenotypic distance (E57 [13]; 1000 nM): 0.774
phenotypic distance (E57 [13]; 3000 nM): 0.716
phenotypic distance (FT3469 [14]; 4.1 nM): 1.07
phenotypic distance (FT3469 [14]; 12.3 nM): 1.13
phenotypic distance (FT3469 [14]; 37 nM): 0.697
phenotypic distance (FT3469 [14]; 111.1 nM): 0.559
phenotypic distance (FT3469 [14]; 333.3 nM): 0.916
phenotypic distance (FT3469 [14]; 1000 nM): 1.01
phenotypic distance (FT3469 [14]; 3000 nM): 1.08
